Earlier results as cited in patent US10960001B2, “Opioid agonist / antagonist combination dosage forms” (KASHIV PHARMA LLC, priority 2017, dated 2021).

How the values were obtained:
[1] = 25° C.

Row | Compound | solubility in water [1] | oral bioavailability (after intake of therapeutic doses) | bioavailability with oral ingestion (oral ingestion)
1 | C=CCN1CC[C@]23c4c5ccc(O)c4O[C@H]2C(=O)CC[C@@]3(O)[C@H]1C5 [Naloxone free base, naloxone] | about 1.4 mg/mL |  | 
2 | C=CCN1CC[C@]23c4c5ccc(O)c4O[C@H]2C(=O)CC[C@@]3(O)[C@H]1C5 [Naloxone, naloxone] |  | 2-3% | about 2%
